Source: publication PMC8445441, “Elucidating the mechanism by which synthetic helper peptides sensitize Pseudomonas aeruginosa to multiple antibiotics” (PLoS Pathogens, 2021)
Read-outs that look alike come from different tables or passages of the source.

Legend:
[1] = system: clinical P. aeruginosa isolates; assay: microbe, parasite or virus in culture; conditions: Pseudomonas aeruginosa, 18 h, antibiotic alone
Method in brief: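 Broth microdilution per CLSI in MHB, two-fold drug dilutions mixed with an equal volume of bacteria at about 1 × 10^6 CFU/mL. After 18 h at 37 °C, MIC taken as the lowest concentration with no visible growth; run in triplicate.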

[2] = system: P. aeruginosa HM-214; conditions: strain HM-214; antibiotic + D-11 (MICb/MICbc 128/4)
Method in brief: (§1)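 MICs were determined by CLSI broth microdilution in MHB, in triplicate: two-fold drug dilutions were mixed 1:1 with bacterial suspension of ~1 × 10^6 CFU/mL and incubated 18 h at 37 °C. The MIC was the lowest concentration with no visible growth.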

[3] = system: P. aeruginosa ATCC27853; assay: microbe, parasite or virus in culture; design: MICa: MIC of the antibiotic / MICac: MIC of the antibiotic in the combination: unit not given beside the values
Method in brief: as §1

[4] = system: P. aeruginosa PAK; assay: microbe, parasite or virus in culture; design: MICa: MIC of the antibiotic / MICac: MIC of the antibiotic in the combination: unit not given beside the values
Method in brief: as §1

[5] = system: P. aeruginosa NR-31040; assay: microbe, parasite or virus in culture; design: MICa: MIC of the antibiotic / MICac: MIC of the antibiotic in the combination: unit not given beside the values; conditions: strain NR-31040
Method in brief: as §1

[6] = system: P. aeruginosa PA14; assay: microbe, parasite or virus in culture; design: MICa: MIC of the antibiotic / MICac: MIC of the antibiotic in the combination: unit not given beside the values
Method in brief: as §1

[7] = system: P. aeruginosa NR-31041; assay: microbe, parasite or virus in culture; design: MICa: MIC of the antibiotic / MICac: MIC of the antibiotic in the combination: unit not given beside the values
Method in brief: as §1

[8] = system: P. aeruginosa AUMC-Pa-3; assay: microbe, parasite or virus in culture
Method in brief: as §1

[9] = system: P. aeruginosa PAO1; assay: microbe, parasite or virus in culture; conditions: PAO1
Method in brief: as §1

[10] = system: P. aeruginosa AUMC-Pa-4; assay: microbe, parasite or virus in culture; conditions: strain AUMC-Pa-4
Method in brief: as §1

[11] = system: P. aeruginosa AUMC-Pa-6; assay: microbe, parasite or virus in culture; conditions: strain AUMC-Pa-6
Method in brief: as §1

[12] = system: P. aeruginosa AUMC-Pa-5; assay: microbe, parasite or virus in culture; conditions: strain AUMC-Pa-5
Method in brief: as §1

[13] = system: P. aeruginosa AUMC-Pa-2; conditions: strain AUMC-Pa-2; antibiotic + D-11 (MICb/MICbc 64/4)
Method in brief: as §1

[14] = system: P. aeruginosa AUMC-Pa-1; conditions: strain AUMC-Pa-1; antibiotic + D-11 (MICb/MICbc 128/4)
Method in brief: as §1

[15] = antibiotic + D-11 (MICb/MICbc 128/4)
[16] = antibiotic alone, unit not given
[17] = with D-11 at MICbc 4, unit not given
[18] = antibiotic + D-11 (MICb/MICbc 64/4)

**Q.** How did the MIC ([1]; read-out: Antibiotic sensibility (MIC) of clinical P. aeruginosa isolate AUMC-Pa-1, strain AUMC-Pa-1) turn out when `CO[C@H]1/C=C/O[C@@]2(C)Oc3c(C)c(O)c4c(c3C2=O)C2=NC3(CCN(CC(C)C)CC3)NC2=C(NC(=O)/C(C)=C\C=C\[C@H](C)[C@H](O)[C@@H](C)[C@@H](O)[C@@H](C)[C@H](OC(C)=O)[C@@H]1C)C4=O` [Rifabutin] was run?
**A.** 32 µM

**Q.** And the MIC ([1]; read-out: Antibiotic sensibility (MIC) of clinical P. aeruginosa isolate AUMC-Pa-2, strain AUMC-Pa-2)?
**A.** 8 µM

**Q.** And the MIC ([1]; read-out: Antibiotic sensibility (MIC) of clinical P. aeruginosa isolate AUMC-Pa-3, strain AUMC-Pa-3)?
**A.** 16 µM

**Q.** What about the MIC ([1]; read-out: Antibiotic sensibility (MIC) of clinical P. aeruginosa isolate AUMC-Pa-4, strain AUMC-Pa-4) of the same compound?
**A.** 16 µM

**Q.** What about the MIC ([1]; read-out: Antibiotic sensibility (MIC) of clinical P. aeruginosa isolate AUMC-Pa-5, strain AUMC-Pa-5) of the same compound?
**A.** 32 µM

**Q.** And the MIC ([1]; read-out: Antibiotic sensibility (MIC) of clinical P. aeruginosa isolate AUMC-Pa-6, strain AUMC-Pa-6)?
**A.** 16 µM

**Q.** And the MIC ([1]; read-out: Antibiotic sensibility (MIC) of clinical P. aeruginosa isolate HM-214, strain HM-214)?
**A.** 32 µM

**Q.** What about the MIC ([1]; read-out: Antibiotic sensibility (MIC) of clinical P. aeruginosa isolate NR-31040, strain NR-31040) of the same compound?
**A.** 32 µM

**Q.** And the MIC ([1]; read-out: Antibiotic sensibility (MIC) of clinical P. aeruginosa isolate NR-31041, strain NR-31041)?
**A.** 32 µM

**Q.** And the FICI [2]?
**A.** 0.039

**Q.** And the MIC ([3]; Pseudomonas aeruginosa, ATCC27853, 18 h, read-out: MICa: MIC of the antibiotic)?
**A.** 16 µM

**Q.** What about the FICI ([3]; strain ATCC27853, antibiotic + D-11 (MICb/MICbc 32/4)) of the same compound?
**A.** 0.133

**Q.** What about the “MICac: MIC of the antibiotic in the combination” value (from here on “MICac: MIC of the antibiotic”) ([3]; strain ATCC27853, with D-11 at MICbc 4, unit not given) of the same compound?
**A.** 0.25

**Q.** And the MIC ([4]; Pseudomonas aeruginosa, 18 h, read-out: MICa: MIC of the antibiotic)?
**A.** 16 µM

**Q.** What about the FICI ([4]; strain PAK, antibiotic + D-11 (MICb/MICbc 64/4)) of the same compound?
**A.** 0.078

**Q.** What about the “MICac: MIC of the antibiotic” value ([4]; strain PAK, with D-11 at MICbc 4, unit not given) of the same compound?
**A.** 0.25

**Q.** And the FICI [5, 15]?
**A.** 0.094

**Q.** What about the “MICa: MIC of the antibiotic” value [5, 16] of the same compound?
**A.** 32

**Q.** And the “MICac: MIC of the antibiotic” value [5, 17]?
**A.** 2

**Q.** What about the MIC ([6]; Pseudomonas aeruginosa, PA14, 18 h, read-out: MICa: MIC of the antibiotic) of the same compound?
**A.** > 128 µM

**Q.** And the FICI ([6]; strain PA14, antibiotic + D-11 (MICb/MICbc 128/4))?
**A.** 0.039

**Q.** And the “MICac: MIC of the antibiotic” value ([6]; strain PA14, with D-11 at MICbc 4, unit not given)?
**A.** 2

**Q.** What about the MIC ([7]; Pseudomonas aeruginosa, NR31041, 18 h, read-out: MICa: MIC of the antibiotic) of the same compound?
**A.** 32 µM

**Q.** And the FICI ([7]; strain NR-31041, antibiotic + D-11 (MICb/MICbc 64/4))?
**A.** 0.070

**Q.** What about the “MICac: MIC of the antibiotic” value ([7]; strain NR-31041, with D-11 at MICbc 4, unit not given) of the same compound?
**A.** 0.25

**Q.** What about the MIC ([8]; Pseudomonas aeruginosa, AUMCPA3, 18 h, read-out: MICa: MIC of the antibiotic) of the same compound?
**A.** 16 µM

**Q.** What about the FICI ([8]; strain AUMC-Pa-3, antibiotic + D-11 (MICb/MICbc 128/4)) of the same compound?
**A.** 0.035

**Q.** What about the “MICac: MIC of the antibiotic” value ([8]; strain AUMC-Pa-3, with D-11 at MICbc 4, unit not given) of the same compound?
**A.** 0.063

**Q.** And the MIC ([9]; Pseudomonas aeruginosa, PAO1, 18 h, read-out: MICa: the MIC of antibiotics, S3 Table, antibiotic alone)?
**A.** 32 µM

**Q.** And the FICI ([9]; S3 Table, antibiotic + 2 μM D-11)?
**A.** 0.064

**Q.** What about the FICI ([9]; S3 Table, antibiotic + 4 μM D-11) of the same compound?
**A.** 0.126

**Q.** What about the “MICac: the MIC for the antibiotic in the combination” value ([9]; S3 Table, with 2 μM D-11) of the same compound?
**A.** 0.0625 µM

**Q.** What about the “MICac: the MIC for the antibiotic in the combination” value ([9]; S3 Table, with 4 μM D-11) of the same compound?
**A.** 0.03125 µM

**Q.** What about the “MICa: the MIC of antibiotics” value ([9]; S3 Table, antibiotic alone) of the same compound?
**A.** 32 µM

**Q.** What about the FICI [10, 15] of the same compound?
**A.** 0.094

**Q.** What about the “MICa: MIC of the antibiotic” value [10, 16] of the same compound?
**A.** 16

**Q.** And the “MICac: MIC of the antibiotic” value [10, 17]?
**A.** 1

**Q.** And the FICI [11, 18]?
**A.** 0.313

**Q.** And the “MICa: MIC of the antibiotic” value [11, 16]?
**A.** 16

**Q.** And the “MICac: MIC of the antibiotic” value [11, 17]?
**A.** 4

**Q.** What about the FICI [12, 18] of the same compound?
**A.** 0.313

**Q.** What about the “MICa: MIC of the antibiotic” value [12, 16] of the same compound?
**A.** 32

**Q.** And the “MICac: MIC of the antibiotic” value [12, 17]?
**A.** 8

**Q.** And the FICI [13]?
**A.** 0.070

**Q.** What about the FICI [14] of the same compound?
**A.** 0.039
